In data set [1] the target is Solute carrier family 22 member 1, Homo sapiens (UniProt O15245). Kind of data set: TP_TRANSPORTER: inhibition of TEA uptake (TEA: 10 uM) in OCT1-expressing HeLa cells.
Data set [2] concerns the target T1, Solute carrier family 22 member 1 (Rattus norvegicus, UniProt Q63089).
T1 sequence (Q63089 whole entry): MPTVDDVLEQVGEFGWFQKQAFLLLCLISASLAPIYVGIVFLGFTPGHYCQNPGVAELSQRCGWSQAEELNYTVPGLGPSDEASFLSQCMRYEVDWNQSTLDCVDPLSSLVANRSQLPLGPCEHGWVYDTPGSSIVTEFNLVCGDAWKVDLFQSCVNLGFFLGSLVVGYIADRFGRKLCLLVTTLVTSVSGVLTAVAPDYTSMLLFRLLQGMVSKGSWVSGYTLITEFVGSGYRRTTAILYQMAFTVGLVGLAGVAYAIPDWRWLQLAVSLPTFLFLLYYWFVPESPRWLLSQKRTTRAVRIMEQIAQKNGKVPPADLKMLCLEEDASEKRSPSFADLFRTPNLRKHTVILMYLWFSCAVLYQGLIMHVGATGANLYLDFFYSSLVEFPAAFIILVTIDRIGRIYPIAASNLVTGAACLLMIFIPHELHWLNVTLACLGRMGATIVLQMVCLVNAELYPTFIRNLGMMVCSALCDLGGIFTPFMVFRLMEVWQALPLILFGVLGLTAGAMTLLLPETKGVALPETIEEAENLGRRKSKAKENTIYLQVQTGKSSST
Kind of data set: TP_TRANSPORTER: uptake in OCT1-expressing HeLa cells. The class given is functional, cell-based. The settings on record: human.

Structures are written as SMILES.

We go through three compounds from ChEMBL document CHEMBL2074369, “Interactions of HIV protease inhibitors with a human organic cation transporter in a mammalian expression system” (Drug Metab Dispos, 2000).

Solute carrier family 22 member 1, Homo sapiens, sequence (O15245 whole entry, looked up): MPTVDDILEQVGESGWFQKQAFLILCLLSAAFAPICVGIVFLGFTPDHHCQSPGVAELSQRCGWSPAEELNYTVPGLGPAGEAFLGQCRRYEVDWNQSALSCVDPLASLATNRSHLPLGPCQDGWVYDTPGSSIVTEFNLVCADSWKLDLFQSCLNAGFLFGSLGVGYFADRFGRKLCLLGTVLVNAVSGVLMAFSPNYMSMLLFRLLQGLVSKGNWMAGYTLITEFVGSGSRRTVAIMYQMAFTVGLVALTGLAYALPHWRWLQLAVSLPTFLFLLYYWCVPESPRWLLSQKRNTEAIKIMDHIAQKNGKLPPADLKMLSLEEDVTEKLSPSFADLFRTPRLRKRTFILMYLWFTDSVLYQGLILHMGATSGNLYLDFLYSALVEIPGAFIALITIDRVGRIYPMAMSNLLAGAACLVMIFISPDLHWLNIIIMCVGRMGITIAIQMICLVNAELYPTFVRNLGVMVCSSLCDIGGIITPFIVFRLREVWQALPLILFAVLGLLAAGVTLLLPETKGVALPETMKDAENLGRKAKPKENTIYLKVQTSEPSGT

In the case of `CC(C)(C)NC(=O)[C@@H]1CN(Cc2cccnc2)CCN1C[C@@H](O)C[C@@H](Cc1ccccc1)C(=O)N[C@H]1c2ccccc2C[C@H]1O` [INDINAVIR], half-maximal inhibition in data set [1] (IC50) was put at 61.7 µM.
The same measure, in the same setting: to `Cc1c(O)cccc1C(=O)N[C@@H](CSc1ccccc1)[C@H](O)CN1C[C@H]2CCCC[C@H]2C[C@H]1C(=O)NC(C)(C)C` [NELFINAVIR] belongs 21.8 µM.
`CC(C)(C)NC(=O)[C@@H]1C[C@@H]2CCCC[C@@H]2CN1C[C@@H](O)[C@H](Cc1ccccc1)NC(=O)[C@H](CC(N)=O)NC(=O)c1ccc2ccccc2n1` [SAQUINAVIR]: the Activity result in data set [2] is “is not a substrate [-]”. For the same compound, the 50% inhibitory concentration (IC50) in data set [1] came to 8.26 µM.
